# “Also recorded” adds a separate entry of the source.
# Assays:
# DAGL-α [1] = target: T1, DAGL-α (Homo sapiens, UniProt Q9Y4D2); assay: real-time, fluorescence-based
# T1 sequence (Q9Y4D2 1-1042): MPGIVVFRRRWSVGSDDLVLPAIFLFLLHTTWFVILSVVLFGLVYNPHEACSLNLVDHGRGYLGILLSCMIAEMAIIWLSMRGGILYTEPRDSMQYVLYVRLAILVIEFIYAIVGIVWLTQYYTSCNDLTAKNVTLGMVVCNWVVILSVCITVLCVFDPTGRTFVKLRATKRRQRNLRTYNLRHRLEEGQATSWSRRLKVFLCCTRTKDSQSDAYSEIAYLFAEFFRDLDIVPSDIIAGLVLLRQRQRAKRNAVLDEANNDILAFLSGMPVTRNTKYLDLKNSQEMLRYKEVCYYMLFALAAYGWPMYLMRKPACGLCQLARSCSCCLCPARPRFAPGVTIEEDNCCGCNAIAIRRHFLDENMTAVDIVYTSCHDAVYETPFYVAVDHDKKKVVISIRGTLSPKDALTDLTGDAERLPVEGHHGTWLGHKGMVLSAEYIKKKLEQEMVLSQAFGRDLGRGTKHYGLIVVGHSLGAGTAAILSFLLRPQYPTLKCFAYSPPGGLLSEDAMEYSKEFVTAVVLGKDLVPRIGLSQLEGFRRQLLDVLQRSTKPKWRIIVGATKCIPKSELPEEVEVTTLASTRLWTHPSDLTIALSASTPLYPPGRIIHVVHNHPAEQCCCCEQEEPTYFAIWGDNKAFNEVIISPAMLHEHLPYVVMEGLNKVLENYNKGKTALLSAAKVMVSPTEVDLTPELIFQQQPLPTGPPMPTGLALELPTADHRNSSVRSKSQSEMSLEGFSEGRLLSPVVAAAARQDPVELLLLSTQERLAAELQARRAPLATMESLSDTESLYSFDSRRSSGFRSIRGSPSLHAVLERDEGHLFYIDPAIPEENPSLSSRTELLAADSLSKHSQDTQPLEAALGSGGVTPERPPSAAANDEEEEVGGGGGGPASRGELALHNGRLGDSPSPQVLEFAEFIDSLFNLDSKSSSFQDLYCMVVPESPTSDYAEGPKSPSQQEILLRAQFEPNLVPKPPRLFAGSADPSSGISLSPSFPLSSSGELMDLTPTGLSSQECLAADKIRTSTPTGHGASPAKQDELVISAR
# FAAH [2] = target: T2, FAAH (Mus musculus, UniProt O08914); assay: competitive ABPP with TAMRA-FP in mouse brain membrane proteome, FAAH labeling; format: binding
# T2 sequence (O08914 1-579): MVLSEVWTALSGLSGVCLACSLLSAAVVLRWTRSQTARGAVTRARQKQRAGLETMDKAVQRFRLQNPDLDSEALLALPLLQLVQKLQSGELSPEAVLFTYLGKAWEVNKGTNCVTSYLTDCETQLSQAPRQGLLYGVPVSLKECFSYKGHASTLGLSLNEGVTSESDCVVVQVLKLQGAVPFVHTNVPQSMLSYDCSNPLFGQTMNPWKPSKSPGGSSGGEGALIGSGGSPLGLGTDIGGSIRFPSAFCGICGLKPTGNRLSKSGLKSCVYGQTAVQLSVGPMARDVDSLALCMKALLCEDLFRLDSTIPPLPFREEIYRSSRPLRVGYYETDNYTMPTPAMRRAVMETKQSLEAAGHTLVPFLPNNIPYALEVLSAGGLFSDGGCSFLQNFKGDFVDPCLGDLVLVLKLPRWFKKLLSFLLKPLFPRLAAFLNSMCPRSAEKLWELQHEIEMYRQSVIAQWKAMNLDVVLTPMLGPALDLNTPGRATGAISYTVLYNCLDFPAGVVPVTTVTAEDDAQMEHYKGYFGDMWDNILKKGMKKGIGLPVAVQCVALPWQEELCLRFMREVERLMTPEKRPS
# serine hydrolases [3] = format: binding, mouse
# mouse liver = conditions: cited from earlier work
# DAGL-α [4] = target: T1, DAGL-α; format: biochemical; conditions: pre-incubated at IC80 concentration; MB064 labeling; n=3
# human PC3 cells = assay: lipid levels in human PC3 cells; format: cell-based
# hDAGL-β [5] = target: T3, hDAGL-β (Homo sapiens, UniProt Q8NCG7); assay: competitive ABPP with MB064 on membranes of hDAGL-β transfected HEK293T cells; format: binding; conditions: n=3
# T3 sequence (Q8NCG7 1-672): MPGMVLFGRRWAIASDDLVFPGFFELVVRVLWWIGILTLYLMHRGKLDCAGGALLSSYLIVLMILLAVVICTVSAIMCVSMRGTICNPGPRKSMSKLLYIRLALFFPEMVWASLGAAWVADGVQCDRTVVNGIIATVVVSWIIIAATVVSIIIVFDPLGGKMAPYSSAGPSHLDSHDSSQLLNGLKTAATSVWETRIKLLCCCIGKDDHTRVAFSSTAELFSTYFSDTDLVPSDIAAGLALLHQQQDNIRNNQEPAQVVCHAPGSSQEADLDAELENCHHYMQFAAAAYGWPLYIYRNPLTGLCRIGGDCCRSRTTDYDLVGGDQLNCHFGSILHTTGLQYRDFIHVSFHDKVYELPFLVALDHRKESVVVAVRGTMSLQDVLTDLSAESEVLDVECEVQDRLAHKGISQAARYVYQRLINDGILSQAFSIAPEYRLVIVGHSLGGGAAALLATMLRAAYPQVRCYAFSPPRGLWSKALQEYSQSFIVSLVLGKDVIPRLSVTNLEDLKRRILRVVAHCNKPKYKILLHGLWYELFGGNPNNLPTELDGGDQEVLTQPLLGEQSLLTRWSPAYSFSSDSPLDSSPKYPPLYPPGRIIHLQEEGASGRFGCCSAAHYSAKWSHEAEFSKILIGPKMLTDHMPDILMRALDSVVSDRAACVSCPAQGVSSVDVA
# ABHD6 = assay: ABPP in Neuro2A proteome, ABHD6; format: binding, mouse
# DAGL-α [6] = target: T1, DAGL-α; assay: radiometric assay using 1-[14C]oleoyl-2-arachidonoyl-sn-glycerol as substrate; format: biochemical; conditions: 1-[14C]oleoyl-2-arachidonoyl-sn-glycerol 20 μm; n=2
# DAGL-α [7] = target: T1, DAGL-α; assay: colorimetric assay using para-nitrophenylbutyrate as a surrogate substrate; format: biochemical
# FAAH [8] = target: T2, FAAH; assay: ABPP in Neuro2A proteome, FAAH; format: binding
# endogenous DAGL-β = target: T4, endogenous DAGL-β (Mus musculus, UniProt Q91WC9); assay: competitive ABPP with MB064 in Neuro2A proteome; format: binding; conditions: Neuro2A proteome in vitro, n=3
# T4 sequence (Q91WC9 1-669): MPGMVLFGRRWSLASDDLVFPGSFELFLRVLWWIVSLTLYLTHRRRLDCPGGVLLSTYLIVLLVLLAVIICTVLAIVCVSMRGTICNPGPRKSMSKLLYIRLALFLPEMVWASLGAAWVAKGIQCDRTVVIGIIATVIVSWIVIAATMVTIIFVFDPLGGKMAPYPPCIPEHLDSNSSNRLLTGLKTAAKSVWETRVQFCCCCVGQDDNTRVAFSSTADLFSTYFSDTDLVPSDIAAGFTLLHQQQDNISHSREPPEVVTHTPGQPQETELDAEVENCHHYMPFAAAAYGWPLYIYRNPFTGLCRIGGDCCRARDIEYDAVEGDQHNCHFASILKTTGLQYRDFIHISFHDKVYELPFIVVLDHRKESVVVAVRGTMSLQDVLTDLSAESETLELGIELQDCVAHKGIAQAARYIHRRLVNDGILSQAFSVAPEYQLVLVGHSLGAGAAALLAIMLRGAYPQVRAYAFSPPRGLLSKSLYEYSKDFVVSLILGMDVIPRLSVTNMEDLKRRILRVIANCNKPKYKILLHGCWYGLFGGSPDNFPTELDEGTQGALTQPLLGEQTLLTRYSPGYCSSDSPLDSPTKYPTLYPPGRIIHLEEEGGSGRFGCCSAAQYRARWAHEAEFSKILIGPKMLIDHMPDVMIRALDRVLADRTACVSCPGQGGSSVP
# [9] = system: endogenously expressed DAGL-β; assay: competitive ABPP with MB064 in mouse spleen membrane proteome; format: binding; conditions: 10 μM, MB064 1.0 μM
# recombinant human MAGL = target: T5, recombinant human MAGL (Homo sapiens, UniProt Q99685); assay: biochemical assay using recombinant human MAGL
# T5 sequence (Q99685 1-303): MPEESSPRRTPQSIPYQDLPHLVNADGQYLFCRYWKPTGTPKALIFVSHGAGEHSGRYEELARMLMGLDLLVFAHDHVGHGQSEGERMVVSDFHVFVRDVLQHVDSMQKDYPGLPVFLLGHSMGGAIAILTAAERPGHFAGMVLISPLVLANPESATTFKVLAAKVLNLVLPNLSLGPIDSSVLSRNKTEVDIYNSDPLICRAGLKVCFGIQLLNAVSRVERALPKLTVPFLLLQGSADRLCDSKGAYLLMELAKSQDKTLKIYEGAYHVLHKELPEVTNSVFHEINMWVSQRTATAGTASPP
# hDAGL-β [10] = target: T3, hDAGL-β; assay: biochemical assay with para-nitrophenylbutyrate as a surrogate substrate; conditions: n=4
# Neuro2A cells = assay: targeted lipidomics after in situ treatment of Neuro2A cells; format: cell-based, mouse; conditions: in situ 1h, 37 °C, n=4
# recombinant human ABHD6 = target: T6, recombinant human ABHD6 (Homo sapiens, UniProt Q9BV23); assay: biochemical assay using recombinant human ABHD6
# T6 sequence (Q9BV23 1-337): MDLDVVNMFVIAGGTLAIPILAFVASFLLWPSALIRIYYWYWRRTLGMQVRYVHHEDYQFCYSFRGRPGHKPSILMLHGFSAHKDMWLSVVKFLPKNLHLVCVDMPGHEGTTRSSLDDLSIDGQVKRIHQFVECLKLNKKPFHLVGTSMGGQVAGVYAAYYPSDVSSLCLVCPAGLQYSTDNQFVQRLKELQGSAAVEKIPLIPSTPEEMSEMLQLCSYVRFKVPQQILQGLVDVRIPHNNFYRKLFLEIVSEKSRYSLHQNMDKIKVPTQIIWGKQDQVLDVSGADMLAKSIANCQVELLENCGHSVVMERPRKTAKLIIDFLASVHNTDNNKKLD
# cannabinoid CB1 receptor = cannabinoid CB1 receptor (Homo sapiens, UniProt P21554); assay: cannabinoid CB1 receptor radioligand displacement assay; format: binding
# [11] = system: CA1 pyramidal neurons in hippocampal slices; assay: depolarization-induced suppression of inhibition; format: cell-based, mouse; conditions: 10 μM
# serine hydrolases [12] = format: binding, mouse; conditions: 10 μM, 30 min
# DAGL-α [13] = format: binding, mouse; conditions: 10 μM
# Chain of cannabinoid CB1 receptor (P21554 whole entry): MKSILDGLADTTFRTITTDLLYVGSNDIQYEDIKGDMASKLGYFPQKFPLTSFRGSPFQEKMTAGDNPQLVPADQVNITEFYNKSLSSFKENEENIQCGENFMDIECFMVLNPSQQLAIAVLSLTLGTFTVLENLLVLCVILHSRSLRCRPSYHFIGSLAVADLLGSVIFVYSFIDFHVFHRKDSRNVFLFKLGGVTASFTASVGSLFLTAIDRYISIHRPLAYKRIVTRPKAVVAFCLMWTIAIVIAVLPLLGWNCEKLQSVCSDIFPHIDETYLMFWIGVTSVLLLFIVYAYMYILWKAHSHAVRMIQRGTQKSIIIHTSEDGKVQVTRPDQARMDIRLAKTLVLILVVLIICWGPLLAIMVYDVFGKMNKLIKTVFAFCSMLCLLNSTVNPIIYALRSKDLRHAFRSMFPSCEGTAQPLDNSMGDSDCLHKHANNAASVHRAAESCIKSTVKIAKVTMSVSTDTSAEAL
smiles,measurement,setting,value
O=C(CCCCCc1ccccc1)c1nc2ncccc2o1 [LEI104],IC50,DAGL-α [1],501 nM
same,IC50,FAAH [2],15.8 nM
"CCCCCCCCCCC[C@@H](C[C@@H]1OC(=O)[C@H]1CCCCCC)OC(=O)[C@@H](NC=O)[C@@H](C)CC [OMDM-188, reference compound]",number of serine hydrolases whose labeling was blocked,"serine hydrolases [3]; 1 μM, including ABHD6 and ABHD12",at least 4
"O=C(N1CCCCC1Cc1ccccc1)n1cc(-c2ccc(-c3ccccc3)cc2)nn1 (centres unmarked) [KT-109, reference compound]",arachidonic acid levels,mouse liver,reduction
same,recovery of DAGL-α activity after size exclusion chromatography,DAGL-α [4],No recovery
Cc1ccc(-c2cnc3nc(C(=O)CCCCCc4ccccc4)oc3c2)cc1 [LEI105],2-AG levels,human PC3 cells,reduced
same,arachidonic acid levels,human PC3 cells,reduced
same,substrate levels of DAGL (DAG species),human PC3 cells,no change
same,pIC50 of hDAGL-β labeling by MB064,hDAGL-β [5],7.4 ± 0.07
same,inhibition of ABHD6,ABHD6,no inhibition
same,"pIC50, radiometric assay",DAGL-α [6],6.6
same,fold more potent than LEI104,"DAGL-α [7]; para-nitrophenylbutyrate assay, vs LEI104",~10 fold
same,pIC50 on human DAGL-α,"DAGL-α [7]; para-nitrophenylbutyrate surrogate substrate, n=4",8.5 ± 0.06
same,inhibition of FAAH,FAAH [8],no inhibition
same,pIC50 of DAGL-β labeling,endogenous DAGL-β,7.3 ± 0.07
same,inhibition of labeling of other bands (TAMRA-FP and MB064),serine hydrolases [3]; 10 μM,did not inhibit labeling of any other band
same,inhibition of endogenous DAGL-β labeling/activity in spleen,[9],could be inhibited; also recorded: can block labeling
same,pKi on MAGL,recombinant human MAGL,< 5
same,fold increase compared to LEI104,DAGL-α [1]; natural substrate assay,40 fold
same,pIC50 on human DAGL-β,hDAGL-β [10],8.1 ± 0.07
same,cellular 2-AG levels,Neuro2A cells,concentration-dependent reduction; also recorded: dose dependently decreased
same,cellular anandamide (AEA) levels,Neuro2A cells,unaffected; also recorded: constant
same,pKi on ABHD6,recombinant human ABHD6,< 5
same,displacement of 3H-CP55940 from the CB1 receptor,cannabinoid CB1 receptor; 10 μM,did not displace
same,pKi on cannabinoid CB1 receptor,cannabinoid CB1 receptor; radioligand displacement,< 5
same,DSI in hippocampal slices (in words),[11],reduced
same,amplitude of stimulus-evoked inhibitory post-synaptic currents (IPSC),[11]; pre-incubation and continuous application,271 ± 22 pA
same,"DSI, reduction in IPSC amplitude averaged over the first 15 sec after induction","[11]; n=15, p<0.05 vs control",18 ± 7%
same,recovery of DAGL-α activity after size exclusion chromatography,DAGL-α [4],reversibility
same,"reduction of labeling of the detected serine hydrolases, except DAGL-α",serine hydrolases [12],≤ 20%
same,reduction of DAGL-α labeling,DAGL-α [13],over 70%
same,block of FAAH labeling,"FAAH [2]; up to a concentration of 10 μM, TAMRA-FP, n=3",did not block FAAH labeling
